This is an account of results in PubChem BioAssay (NCI).

Each structure is given as a SMILES string.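 Five concentrations, 48 hours, 96-well plates. The concentration for 50% growth inhibition is given as GI50. At the TGI there is no net growth.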 A value given as a limit tells only on which side of the number the result lay.

Common to all, as to assay: growth of human tumour cells (NCI), 48 h
The test system of assay [1] is HCT-15 colon.
For assay [2], the system named is PC-3 prostate.
Assay [3] concerns SK-MEL-28 melanoma.
The subject of assay [4] is BT-549 breast.
Assay [5] concerns OVCAR-8 ovarian.
The subject of assay [6] is MDA-N.
The test system of assay [7] is MOLT-4 leukemia.
Assay [8] deals with SN12C renal.
The test system of assay [9] is A498 renal.
For assay [10], the system named is CCRF-CEM leukemia.
The test system of assay [11] is SNB-75 CNS.
For assay [12], the system named is SR leukemia.
Assay [13] relates to EKVX NSCLC.

Consider `O=[N+]([O-])c1ccc2c(c1)c(OCc1ccccc1)nn2Cc1ccccc1`, for which the TGI in assay [1], in [2], in assay [3], in [4], in assay [5] and in [6] was over 100 µM each time. For the same molecule, the TGI in assay [7], in assay [8], in [9] and in assay [10] was over 100 µM each time.
Consider `O=C1/C(=C/c2ccccc2)N=C2Sc3c(nc[nH]c3=O)N12`, for which the TGI in assay [1], in assay [2], in [3], in assay [5], in [7] and in assay [8] was over 100 µM throughout. Also, the TGI in [9] is over 100 µM; in [10] it was over 100 µM; in assay [11], over 100 µM; in [12], 68 µM; in assay [13], over 100 µM.
As to `CCC(C(=O)O)c1ccc(OC)cc1` (stereo not given), the TGI in assay [3], in assay [7], in assay [8], in assay [9], in assay [10] and in [11] was over 100 µM in each case. In addition, the TGI in assay [12] and in assay [13] was over 100 µM each time.
`Cc1ccc(Cl)c2[nH]c(-c3ccccc3)cc(=O)c12`: the TGI in assay [1], in assay [2], in [3], in assay [5], in assay [6] and in assay [7] was over 100 µM each time. Besides, the TGI in assay [8] was over 100 µM; in assay [9], over 100 µM; in assay [10], over 100 µM; in assay [11], over 100 µM; in assay [13], 45 µM.
As for `CC(C)(C)OC(=O)N[C@H]1CCN(C2CCCCC2)C1=O`, the TGI in assay [1], in assay [2], in assay [3], in [5], in [6] and in assay [7] was over 100 µM each time. The TGI in [8], in [9], in assay [10], in assay [11] and in [13] was over 100 µM throughout.
In the case of `COc1ccc(COCCOCc2nc(C#N)c(N)o2)cc1`, the TGI in assay [1], in assay [2], in assay [3], in assay [4], in [5] and in assay [7] was over 100 µM each time. Besides, the TGI in assay [8], in [9], in assay [10], in assay [11], in assay [12] and in assay [13] was over 100 µM throughout.
In the case of `N#Cc1c(N2CCCC2)ncn(-c2ccccc2)c1=O`, the TGI in assay [1], in assay [2], in assay [3], in assay [5], in assay [6] and in assay [7] was over 100 µM throughout. Besides, the TGI in assay [8], in assay [9], in [10], in [11], in [12] and in assay [13] was over 100 µM each time.
With `CCOC(=O)c1cn2c(n1)sc1cccc(C)c12`, the TGI in [1], in [2], in assay [4], in assay [5], in assay [6] and in assay [11] was over 100 µM throughout. For the same molecule, the TGI in [13] was over 100 µM.
Regarding `O=C(N/N=C(/COc1ccc(Cl)cc1)N=Cc1ccncc1)c1ccncc1`, the TGI in [1], in assay [2], in assay [3], in [4], in assay [5] and in assay [6] was over 100 µM each time. The TGI in assay [7], in assay [8], in [9], in assay [10] and in [13] was over 100 µM each time.
Take `Cc1cn2c(/C=N/N=C(N)N)c(-c3cccc([N+](=O)[O-])c3)nc2s1`: the TGI in assay [1] was found to be 19.6 µM; in assay [2] it was 4.08 µM; in [3], 2.55 µM; in assay [4] it was 3.3 µM; in assay [5], 3.7 µM; in [7] it was 4.04 µM. Further, the TGI in assay [8] was 3.08 µM; in assay [10], over 100 µM; in [13], 5.39 µM.
With `O=C1CCCSC(=O)N1Cc1ccccc1`, the TGI in assay [1], in [2], in [3], in assay [5], in assay [6] and in assay [7] was over 100 µM in each case. For the same molecule, the TGI in assay [8], in assay [9], in [10], in assay [11], in assay [12] and in assay [13] was over 100 µM in each case.
In the case of `O=C1c2ccccc2-c2c1c1ccccc1c(=O)n2CCNCCNCCNCCn1c2c(c3ccccc3c1=O)C(=O)c1ccccc1-2`, the GI50 is 0.579 µM in [1], 0.373 µM in assay [2] and 1.28 µM in [13]. The results for the TGI in [1], in [2] and in [13] were 2.11 µM, 1.33 µM and 2.81 µM, respectively.
Consider `C=C(C)C(=O)OC1C/C(CO)=C\C(O)C/C(C)=C/C2OC(=O)C(=C)C21` (stereo not given), for which the TGI in assay [1] was 29.6 µM; in assay [3], 33.4 µM; in assay [5], 49.5 µM; in [7] it was 56.2 µM; in assay [8], 38.8 µM; in [10], 36.6 µM. In addition, the figures for the TGI in assay [11], in [12] and in [13] were over 100 µM, 50.5 µM and 69.1 µM, respectively.
On to `CCCCC#C[I+]c1ccccc1`, for which the TGI came to 30 µM in assay [1]; 31.8 µM in [3]; 32.5 µM in [5]; 23.9 µM in assay [7]; 28.3 µM in [8]; 48.2 µM in [9]. For the same molecule, the TGI in assay [10] stood at 24.4 µM; in [11], 30.1 µM; in assay [12] it was 37.5 µM; in assay [13], 33.4 µM.
Take `CC(=O)NC(Cc1ccc(O)cc1)C(=O)O` (stereo not given): the TGI in assay [1], in assay [2], in [3], in assay [4], in assay [5] and in assay [6] was over 100 µM each time. In addition, the TGI in assay [7], in assay [8], in [9] and in assay [13] was over 100 µM each time.
For `COc1ccc2c(c1)/C(=C/CCN(C)C)c1ccccc1S2`, the TGI in assay [1] was over 100 µM; in [2], over 100 µM; in [3] it was 38.8 µM; in assay [5] it was over 100 µM; in [6] it was over 100 µM; in assay [7], over 100 µM. For the same molecule, the TGI in assay [8], in [9], in assay [10], in [11] and in [12] was over 100 µM throughout.
Regarding `C[C@]12CCC(O)CC1=CC[C@@H]1[C@@H]2CC[C@]2(C)C(=O)[C@H](n3ccnc3)C[C@@H]12` (stereo not given in full), the TGI was over 100 µM in assay [1]; over 100 µM in assay [2]; over 100 µM in [3]; over 100 µM in assay [5]; over 100 µM in assay [6]; 53.1 µM in [7]. For the same molecule, the TGI in [8], in [9], in [10], in assay [11], in assay [12] and in [13] was over 100 µM throughout.
Take `CC1CCC(n2c3cnccc3c3cnc(Nc4ccc5c(n4)CCN(C(=O)CO)C5)nc32)CC1` (stereo not given): the GI50 in [1] was 0.418 µM; in assay [7] it was 0.211 µM; in assay [10] it was 0.448 µM; in assay [12], 0.239 µM; in assay [13] it was over 100 µM. Besides, the TGI in assay [1], in assay [7], in assay [10], in [12] and in assay [13] was over 100 µM throughout.
Regarding `CC(C)CCS(=O)(=O)OCCCCOS(=O)(=O)CCC(C)C`, the TGI in assay [1], in assay [3], in assay [5], in assay [7], in assay [8] and in [10] was over 100 µM in each case. Also, the TGI in assay [11], in assay [12] and in assay [13] was over 100 µM in each case.
On to `c1ccc(N=c2sc3ccccc3nc2Nc2ccccc2)cc1`, for which the TGI in assay [1], in assay [2], in [3], in assay [5], in [7] and in assay [8] was over 100 µM in each case. The TGI in [9], in [10], in assay [11], in [12] and in assay [13] was over 100 µM throughout.
Turning to `COc1cc2c(c(OC)c1OC)C(=O)[C@@H]1[C@H]2N1C(N)=O`, the TGI in assay [1], in assay [2], in [3], in [5], in assay [6] and in assay [7] was over 100 µM in each case. Moreover, the TGI in assay [8], in assay [10], in assay [11], in assay [12] and in [13] was over 100 µM each time.
For the molecule `O=C(NC(=O)c1ccccc1[N+](=O)[O-])Nc1ccc(Oc2ncc(Br)cn2)c(Cl)c1`, the GI50 in assay [1] is under 0.0258 µM; in assay [7], under 0.0222 µM; in [8], under 0.027 µM; in assay [10] it was under 0.0194 µM; in [13], 0.868 µM. In addition, the TGI was over 42.7 µM in assay [1]; 0.0733 µM in [3]; 0.0736 µM in assay [5]; under 0.0159 µM in assay [6]; 0.052 µM in assay [9].
On to `O=C1CCCc2cc3c(cc21)CC1(Cc2ccccc2C1)C3`, for which the TGI in assay [1] is 24.4 µM; in assay [2], over 100 µM; in assay [5], 43.7 µM; in assay [7] it was 19.3 µM; in [8], 41 µM; in assay [9], 67 µM. Further, the TGI in assay [11] was 3 µM; in [13] it was over 100 µM.
On to `COC(=O)c1c(C)cccc1C1CN=NC12Cc1ccc(C)cc1C2=O` (stereo not given), for which the TGI in [1] was over 100 µM; in assay [2] it was over 100 µM; in [3], over 100 µM; in assay [5] it was over 100 µM; in assay [6], over 100 µM; in assay [7], 84.7 µM. In addition, the TGI in [8], in assay [9], in assay [10], in assay [11], in assay [12] and in [13] was over 100 µM each time.
For `N#CCCC1C(C#N)C2(Cl)CC1(Cl)C(Cl)=C2Cl` (stereo not given), the TGI in assay [1], in [2], in assay [3], in assay [5], in [6] and in assay [7] was over 10 µM each time. The TGI in [8], in assay [9], in assay [10], in assay [11] and in assay [13] was over 10 µM throughout.
In the case of `C=C1C(=O)O[C@@H]2C(=O)[C@@H](C)CCC/C(C)=C/CC[C@@]3(C)O[C@@H]3C[C@@H]12`, the TGI in [1] is 44 µM; in [2], over 100 µM; in assay [3], over 100 µM; in [5], over 100 µM; in [6], over 100 µM; in assay [7], over 100 µM. The TGI is over 100 µM in assay [8]; over 100 µM in assay [9]; 30.2 µM in assay [10]; 56.8 µM in assay [11]; over 100 µM in [13].
